# Measurements: US9745554B2, “Method of improving cell proliferation of pancreatic progenitor cells in a pancreatic cell culture” (ReNeuron, Inc., priority 2006, dated 2017)
# Key:
# [1] = test system: cultured pancreatic cells
# Description: At least one exogenous growth factor is added to the survival media in an amount sufficient to increase the level of activated Akt in the cultured cells. Typically, the growth factors are added in a concentration range from about 10 ng/ml to about 100 ng/ml of culture media (e.g., 10, 15, 20, 30, 40, 50, 60, 70, 80, 90, 100 ng/ml of culture media). Non-limiting exemplary growth factors suitable for use with the present invention may include members of the IGF, EGF, and PDGF families.
# human pancreatic cells = assay: Real-time quantitative RT-PCR of endocrine and progenitor marker gene expression; assay type: cell-based; settings: additive in control media; pancreatic endocrine cultures; FIG. 7
# Description: To determine the effects of survival media on endocrine lineage cells, we studied the gene expression of our expanded pancreatic cells by quantitative RT-PCR as shown for example in FIG. 6. Total cellular RNA was isolated from cells using Nucleospin RNA II kits (BD Biosciences, Inc.). Reverse transcription was performed using 5 μg of total RNA M-MLV reverse transcriptase (Invitrogen), 10 mM DTT, 0.5 mM dNTP (Sigma, St. Louis, Mo.), 25 ng/μl of Oligo(dt) 12-18 primer (Sigma), RNase inhibitor (Sigma) and 1× First-strand buffer (Invitrogen). The mixture was heated to 65° C. for 5 minutes. Reverse transcriptase was added and incubated at 37° C. for 60 minutes. Reactions were terminated and real-time quantitative PCR was performed according to the manufacturer's instructions using Light Cycler machines 1.0 and 2.0 (Roche) in the presence of […] of 5-fold diluted cDNA. Insulin, glucagon, Somatostatin, PDX-1, Neuro-D1, CK-19, amylase, HNF3-beta, and β-actin primer sequences were designed based on published human mRNA sequences. Data for mRNA was presented according to calculations using absolute quantification methods, or as a fold increase over the control. All expression levels of the different genes were normalized to β-actin. […]
# caspases 3 and 7 = assay: Apo-ONE caspase 3/7 assay on cell lysates; assay type: cell-based, human; settings: FIG. 1
# Description: In some embodiments, the presence of caspases 3 and 7 and the extent of cell death is measured using the APO-ONE™ caspase assay (see, e.g., FIG. 1) according to the manufacturers instructions (Promega Inc., Madison, Wis.).
# One of the hallmarks of apoptosis is caspase activation. The downstream caspases 3 and 7 have a consensus cleavage sequence DEVD (SEQ ID NO: 1). For determination of the extent of apoptosis in our cultures, we used the Apo-ONE assay system (Promega), according to the manufacturer's instructions (FIG. 1). Cells were plated on 96 well plates, and cell lysates were prepared in a buffer that supports caspase activity (Promega, Madison, Wis.) and analyzed on a fluorescent plate reader using the Apo-ONE caspase 3/7 fluorescent assay (Promega, Madison, Wis.) at an excitation wavelength was 485 run and an emission wavelength was 530 nm.
Compound,works as exogenous growth factor with the invention [1],"insulin mRNA normalized to β-actin mRNA, fold increase over control media alone (human pancreatic cells)","caspase activation in pancreatic cells (caspases 3 and 7; 1 μM inhibitor, P0 adherent pancreatic cells)",concentration dependence of caspase inhibition (caspases 3 and 7; three independent experiments)
VEGF,did not work,–,–,–
"CC(C)C(NC(=O)c1ccc2ccccc2n1)C(=O)NC(CC(=O)O)C(=O)COc1c(F)cccc1F (stereo not shown) [OPH-109, non-O-methylated Q-VD-OPH]",–,10 fold,completely reversed the caspase activation,concentration dependence of caspase inhibition
